Measurements as given in PubChem BioAssay (NCI).
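Method: 48-hour compound exposure of cells in 96-well plates, five concentrations, linear interpolation of endpoints. TGI marks complete inhibition of growth.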

What was measured:
Experiment in all cases: inhibition of tumour cell growth, NCI panel, 48 h
[1] = system: UACC-257 melanoma
[2] = system: HT29 colon
[3] = system: A498 renal
[4] = system: HOP-62 NSCLC
[5] = system: SF-268 CNS
[6] = system: OVCAR-8 ovarian
[7] = system: COLO 205 colon
[8] = system: M14 melanoma
[9] = system: SF-295 CNS
[10] = system: NCI-H522 lung
[11] = system: NCI-H460 lung
[12] = system: UACC-62 melanoma
[13] = system: U251 CNS
[14] = system: RPMI-8226 leukemia
[15] = system: M19-MEL melanoma
[16] = system: UO-31 renal
[17] = system: XF 498 CNS
[18] = system: SW-620 colon
[19] = system: OVCAR-3 ovarian
[20] = system: A549 NSCLC
[21] = system: OVCAR-4 ovarian
[22] = system: HCT-15 colon
[23] = system: EKVX NSCLC
[24] = system: NCI-H23 lung
[25] = system: CCRF-CEM leukemia
[26] = system: LXFL 529 NSCLC
[27] = system: SNB-78 CNS
[28] = system: SNB-19 CNS
[29] = system: KM20L2 colon
[30] = system: DMS 114 small cell lung
[31] = system: ACHN renal
[32] = system: HCC-2998 colon
[33] = system: SK-MEL-5 melanoma
[34] = system: SN12C renal
[35] = system: OVCAR-5 ovarian
[36] = system: MOLT-4 leukemia
[37] = system: KM12 colon
[38] = system: SK-OV-3 ovarian
[39] = system: IGROV1 ovarian
[40] = system: CAKI-1 renal
[41] = system: SK-MEL-28 melanoma
[42] = system: SNB-75 CNS
[43] = system: TK-10 renal
[44] = system: DLD-1 colon
[45] = system: K-562 leukemia
[46] = system: MALME-3M melanoma
[47] = system: SK-MEL-2 melanoma
[48] = system: HL-60(TB) leukemia
[49] = system: RXF 393 renal
[50] = system: LOX IMVI melanoma
[51] = system: 786-0 renal
[52] = system: DMS 273 small cell lung
[53] = system: HCT-116 colon
[54] = system: SF-539 CNS
[55] = system: NCI-H226 lung
[56] = system: HOP-92 NSCLC
[57] = system: SR leukemia

COc1ccc(/C=C/C(=O)C(C)(C)C)cc1OC gave a TGI [1] greater than 100 µM, a TGI [2] greater than 100 µM and a TGI [3] greater than 100 µM. The TGI [4] was greater than 100 µM, the TGI [5] was greater than 100 µM and the TGI [6] was greater than 100 µM. For the same compound, the TGI [7] was greater than 100 µM, the TGI [8] was greater than 100 µM and the TGI [9] was greater than 100 µM. For the same compound, the TGI [10] was greater than 100 µM, the TGI [11] was greater than 100 µM and the TGI [12] was greater than 100 µM. The TGI [13] was greater than 100 µM, the TGI [14] was greater than 100 µM and the TGI [15] was greater than 100 µM. The TGI [16] was greater than 100 µM, the TGI [17] was greater than 100 µM and the TGI [18] was greater than 100 µM. It also gave a TGI [19] greater than 100 µM, a TGI [20] greater than 100 µM and a TGI [21] greater than 100 µM. The TGI [22] was greater than 100 µM, the TGI [23] was greater than 100 µM and the TGI [24] was greater than 100 µM. The TGI [25] was greater than 100 µM, the TGI [26] was greater than 100 µM and the TGI [27] was greater than 100 µM. It also gave a TGI [28] greater than 100 µM, a TGI [29] greater than 100 µM and a TGI [30] greater than 100 µM. It also gave a TGI [31] greater than 100 µM, a TGI [32] greater than 100 µM and a TGI [33] greater than 100 µM. For the same compound, the TGI [34] was greater than 100 µM, the TGI [35] was greater than 100 µM and the TGI [36] was greater than 100 µM. For the same compound, the TGI [37] was greater than 100 µM, the TGI [38] was greater than 100 µM and the TGI [39] was greater than 100 µM. The TGI [40] was greater than 100 µM, the TGI [41] was greater than 100 µM and the TGI [42] was greater than 100 µM. The TGI [43] was greater than 100 µM, the TGI [44] was greater than 100 µM and the TGI [45] was greater than 100 µM.
With CCOP(=S)(OCC)Oc1ccc2c(c1)OC(=O)C1(Cl)C2(C)C2(Cl)C(=O)Oc3cc(OP(=S)(OCC)OCC)ccc3C12C (stereo not given) the TGI [46] was 43.8 µM, the TGI [47] was 42.3 µM and the TGI [1] was 37.2 µM. It also gave a TGI [2] of 29.9 µM, a TGI [3] of 63.7 µM and a TGI [4] of 40.3 µM. The TGI [5] was 21 µM, the TGI [6] was 37.2 µM and the TGI [7] was 34.3 µM. It also gave a TGI [8] of 33.7 µM, a TGI [9] of 29.7 µM and a TGI [10] of 22.3 µM. The TGI [11] was 36.6 µM, the TGI [12] was 26.6 µM and the TGI [13] was 20 µM. For the same compound, the TGI [14] was 52.8 µM, the TGI [15] was 33.9 µM and the TGI [48] was 34.4 µM. The TGI [16] was 33.7 µM, the TGI [17] was 36.2 µM and the TGI [18] was 33.3 µM. For the same compound, the TGI [19] was 28.1 µM, the TGI [49] was 25.8 µM and the TGI [50] was 37.5 µM. It also gave a TGI [20] of 74.1 µM, a TGI [21] of 24.4 µM and a TGI [51] of 44.9 µM. It also gave a TGI [22] of 41.6 µM, a TGI [23] of 55.5 µM and a TGI [52] of 38.1 µM. It also gave a TGI [53] of 25 µM, a TGI [25] of 41.1 µM and a TGI [26] of 21.1 µM. For the same compound, the TGI [27] was 49.4 µM, the TGI [28] was 15.6 µM and the TGI [29] was 33.4 µM. For the same compound, the TGI [30] was 30 µM, the TGI [31] was 43.4 µM and the TGI [32] was 33.9 µM. For the same compound, the TGI [33] was 31.7 µM, the TGI [34] was 39.3 µM and the TGI [35] was 33.3 µM. For the same compound, the TGI [36] was 66.6 µM, the TGI [37] was 30.7 µM and the TGI [54] was 24.7 µM. It also gave a TGI [39] of 38.7 µM, a TGI [40] of 41.8 µM and a TGI [41] of 31.1 µM. The TGI [42] was 34.3 µM, the TGI [43] was 61.8 µM and the TGI [44] was 33.3 µM. For the same compound, the TGI [55] was 31.1 µM and the TGI [45] was 77.3 µM.
Compound Cc1nc2c(n1CC(C)C)C(=O)c1ccccc1C2=O has a TGI [46] of 40.6 µM, a TGI [47] of 74.7 µM and a TGI [1] of 45.4 µM. For the same compound, the TGI [2] was greater than 100 µM, the TGI [4] was greater than 100 µM and the TGI [5] was greater than 100 µM. It also gave a TGI [6] greater than 100 µM, a TGI [7] greater than 100 µM and a TGI [8] greater than 100 µM. It also gave a TGI [9] greater than 100 µM, a TGI [10] of 76.5 µM and a TGI [11] of 54.2 µM. The TGI [12] was 50.5 µM, the TGI [13] was greater than 100 µM and the TGI [15] was 29.6 µM. For the same compound, the TGI [48] was greater than 100 µM, the TGI [16] was greater than 100 µM and the TGI [17] was 95.9 µM. For the same compound, the TGI [18] was greater than 100 µM, the TGI [19] was 82.1 µM and the TGI [49] was greater than 100 µM. The TGI [50] was greater than 100 µM, the TGI [20] was 97.7 µM and the TGI [21] was greater than 100 µM. For the same compound, the TGI [51] was greater than 100 µM, the TGI [22] was greater than 100 µM and the TGI [23] was greater than 100 µM. It also gave a TGI [24] of 49.2 µM, a TGI [52] greater than 100 µM and a TGI [53] of 67.4 µM. The TGI [25] was greater than 100 µM, the TGI [26] was greater than 100 µM and the TGI [27] was greater than 100 µM. For the same compound, the TGI [28] was greater than 100 µM, the TGI [29] was greater than 100 µM and the TGI [56] was 65.7 µM. It also gave a TGI [57] greater than 100 µM, a TGI [31] greater than 100 µM and a TGI [32] greater than 100 µM. The TGI [33] was 34.7 µM, the TGI [34] was greater than 100 µM and the TGI [36] was greater than 100 µM. For the same compound, the TGI [37] was greater than 100 µM, the TGI [38] was greater than 100 µM and the TGI [54] was 87.6 µM. It also gave a TGI [39] greater than 100 µM, a TGI [41] greater than 100 µM and a TGI [42] greater than 100 µM. The TGI [43] was greater than 100 µM, the TGI [44] was greater than 100 µM and the TGI [55] was greater than 100 µM. It also gave a TGI [45] greater than 100 µM.
